Measurements from ChEMBL document CHEMBL1201862, “PubChem BioAssay data set” (2004).
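Grown in 96-well plates, cells were treated for 48 hours with each compound at five concentrations. Insufficient inhibition: endpoint recorded as highest concentration tested. GI50 marks 50% less growth.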 Activity calls are given as the source filed them. Cut-off read from the data, not from the text of the source: active = GI50 up to about 1.1 µM and inactive = higher.

Assays:
Experiment in all cases: NCI anticancer screen, dose series, 48 h
[1] = system: ACHN
[2] = system: COLO 205
[3] = system: EKVX
[4] = system: HOP-62
[5] = system: HT-29
[6] = system: KM12
[7] = system: LOX IMVI
[8] = system: MOLT-4
[9] = system: NCI-H23
[10] = system: OVCAR-4
[11] = system: OVCAR-5
[12] = system: SF-539
[13] = system: SK-MEL-2
[14] = system: SK-MEL-5
[15] = system: SN12C
[16] = system: SNB-75
[17] = system: U-251
[18] = system: UACC-62
[19] = system: SR
[20] = system: HCC 2998

Compound	GI50 [1]	GI50 [2]	GI50 [3]	GI50 [4]	GI50 [5]	GI50 [6]	GI50 [7]	GI50 [8]	GI50 [9]	GI50 [10]	GI50 [11]	GI50 [12]	GI50 [13]	GI50 [14]	GI50 [15]	GI50 [16]	GI50 [17]	GI50 [18]	GI50 [19]	GI50 [20]
O=C(OCCO)C1CC2CC1C1(C2)OCCO1 (stereo unspecified)	> 100 µM (inactive)	> 100 µM (inactive)	> 100 µM (inactive)	> 100 µM (inactive)	> 100 µM (inactive)	> 100 µM (inactive)	> 100 µM (inactive)	> 100 µM (inactive)	> 100 µM (inactive)	> 100 µM (inactive)	> 100 µM (inactive)	> 100 µM (inactive)	> 100 µM (inactive)	> 100 µM (inactive)	> 100 µM (inactive)	> 100 µM (inactive)	> 100 µM (inactive)	> 100 µM (inactive)	–	–
CCN(CC)Cc1cc(Nc2c3ccccc3nc3c2[nH]c2ccccc23)ccc1O	0.875 µM (active)	1.02 µM (active)	2.45 µM (inactive)	1.14 µM (inactive)	0.52 µM (active)	1.36 µM (inactive)	1.22 µM (inactive)	0.508 µM (active)	1.43 µM (inactive)	1.39 µM (inactive)	1.22 µM (inactive)	1.35 µM (inactive)	1.34 µM (inactive)	1.89 µM (inactive)	1.67 µM (inactive)	1.59 µM (inactive)	1.17 µM (inactive)	1.62 µM (inactive)	0.337 µM (active)	–
c1ccc(C2=NNC3c4ccccc4-c4ccccc4N3C2)cc1 (stereo unspecified)	31.8 µM (inactive)	18.4 µM (inactive)	35.5 µM (inactive)	46.1 µM (inactive)	39.5 µM (inactive)	37.1 µM (inactive)	28.6 µM (inactive)	20 µM (inactive)	26.1 µM (inactive)	37.9 µM (inactive)	99.8 µM (inactive)	22.4 µM (inactive)	20.1 µM (inactive)	15.9 µM (inactive)	35.3 µM (inactive)	21.9 µM (inactive)	26.5 µM (inactive)	16.4 µM (inactive)	21.1 µM (inactive)	–
O=S(=O)(c1ccc(I)cc1)N(c1ccccc1)S(=O)(=O)C(F)(F)C(F)(F)C(F)(F)C(F)(F)F	58.2 µM (inactive)	40 µM (inactive)	40.8 µM (inactive)	24.3 µM (inactive)	22.4 µM (inactive)	18.8 µM (inactive)	96.2 µM (inactive)	39.4 µM (inactive)	43.2 µM (inactive)	24.5 µM (inactive)	24.9 µM (inactive)	35.6 µM (inactive)	29.2 µM (inactive)	–	> 100 µM (inactive)	–	75.2 µM (inactive)	25.5 µM (inactive)	56.5 µM (inactive)	–
NCCCCCC(CCN)SCC1OC(n2cnc3c(N)ncnc32)C(O)C1O (stereo unspecified)	–	> 798 µM (inactive)	> 555 µM (inactive)	> 809 µM (inactive)	569 µM (inactive)	416 µM (inactive)	> 1060 µM (inactive)	551 µM (inactive)	764 µM (inactive)	> 1440 µM (inactive)	> 1500 µM (inactive)	483 µM (inactive)	> 1500 µM (inactive)	> 1110 µM (inactive)	> 574 µM (inactive)	> 1500 µM (inactive)	687 µM (inactive)	537 µM (inactive)	–	> 1150 µM (inactive)
O=C1C(Cl)N(c2ccc([N+](=O)[O-])cc2)C1c1c[nH]c2ccccc12 (stereo unspecified)	–	> 100 µM (inactive)	> 100 µM (inactive)	> 100 µM (inactive)	48.1 µM (inactive)	66.2 µM (inactive)	–	28.6 µM (inactive)	86.9 µM (inactive)	53 µM (inactive)	> 100 µM (inactive)	33 µM (inactive)	> 100 µM (inactive)	> 100 µM (inactive)	> 100 µM (inactive)	> 100 µM (inactive)	62.5 µM (inactive)	51.3 µM (inactive)	19.5 µM (inactive)	–
Cc1nc2c(n1C)C(=O)c1nc(CBr)[nH]c(=O)c1C2=O	> 100 µM (inactive)	51.5 µM (inactive)	24.4 µM (inactive)	–	39.4 µM (inactive)	–	46.5 µM (inactive)	> 100 µM (inactive)	> 100 µM (inactive)	–	–	> 100 µM (inactive)	–	20.3 µM (inactive)	> 100 µM (inactive)	–	> 100 µM (inactive)	> 100 µM (inactive)	–	–
COc1ccc(-c2cc(-c3ccccc3)c3c(n2)-c2ccccc2NC(=O)C3)cc1	35.1 µM (inactive)	> 100 µM (inactive)	40.3 µM (inactive)	36 µM (inactive)	12.1 µM (inactive)	35.4 µM (inactive)	65.6 µM (inactive)	–	> 100 µM (inactive)	3.64 µM (inactive)	> 100 µM (inactive)	> 100 µM (inactive)	32.7 µM (inactive)	23.8 µM (inactive)	58.6 µM (inactive)	1.19 µM (inactive)	22.5 µM (inactive)	98.2 µM (inactive)	–	53 µM (inactive)
Cc1[nH]c(=O)[nH]c(=O)c1/C=C/C(=O)NC(CO)CC(C)C (stereo unspecified)	–	242 µM (inactive)	> 375 µM (inactive)	> 375 µM (inactive)	222 µM (inactive)	> 375 µM (inactive)	> 375 µM (inactive)	237 µM (inactive)	> 362 µM (inactive)	214 µM (inactive)	> 265 µM (inactive)	> 375 µM (inactive)	> 305 µM (inactive)	> 375 µM (inactive)	274 µM (inactive)	226 µM (inactive)	> 343 µM (inactive)	> 375 µM (inactive)	–	222 µM (inactive)
O=NN(CC1(O)OCC(O)C(O)C1O)C(Cc1c[nH]c2ccccc12)C(=O)O (stereo unspecified)	> 100 µM (inactive)	> 100 µM (inactive)	> 100 µM (inactive)	> 100 µM (inactive)	> 100 µM (inactive)	> 100 µM (inactive)	> 100 µM (inactive)	> 100 µM (inactive)	> 100 µM (inactive)	–	> 100 µM (inactive)	> 100 µM (inactive)	> 100 µM (inactive)	> 100 µM (inactive)	–	> 100 µM (inactive)	> 100 µM (inactive)	> 100 µM (inactive)	–	> 100 µM (inactive)
O=C(O)Cc1ccc(N2N=C(c3ccccc3)CC2=O)cc1	> 100 µM (inactive)	> 100 µM (inactive)	> 100 µM (inactive)	> 100 µM (inactive)	> 100 µM (inactive)	> 100 µM (inactive)	–	> 100 µM (inactive)	> 100 µM (inactive)	> 100 µM (inactive)	> 100 µM (inactive)	–	23.2 µM (inactive)	> 100 µM (inactive)	> 100 µM (inactive)	> 100 µM (inactive)	> 100 µM (inactive)	> 100 µM (inactive)	> 100 µM (inactive)	> 100 µM (inactive)
c1ccc2c(NCCCCCCCCNc3cccc4ccccc34)cccc2c1	30 µM (inactive)	18.6 µM (inactive)	> 10 µM (inactive)	> 100 µM (inactive)	32.4 µM (inactive)	> 100 µM (inactive)	–	16.7 µM (inactive)	25.3 µM (inactive)	28.2 µM (inactive)	46 µM (inactive)	27 µM (inactive)	35.8 µM (inactive)	> 10 µM (inactive)	35.6 µM (inactive)	21.4 µM (inactive)	63.2 µM (inactive)	20.5 µM (inactive)	–	> 100 µM (inactive)
Cc1n(CC(=O)c2ccc([N+](=O)[O-])cc2)c2c([n+]1CC(C)C)C(=O)c1ccccc1C2=O	–	< 0.01 µM (active)	< 0.0109 µM (active)	0.29 µM (active)	< 0.0131 µM (active)	< 0.0211 µM (active)	< 0.01 µM (active)	< 0.0204 µM (active)	< 0.01 µM (active)	< 0.0178 µM (active)	< 0.0318 µM (active)	< 0.01 µM (active)	< 0.0123 µM (active)	< 0.0106 µM (active)	< 0.01 µM (active)	< 0.0356 µM (active)	< 0.01 µM (active)	< 0.0334 µM (active)	–	–
COc1ccc(CCn2nccc2C)cc1	> 100 µM (inactive)	> 100 µM (inactive)	93.8 µM (inactive)	> 100 µM (inactive)	> 100 µM (inactive)	> 100 µM (inactive)	> 100 µM (inactive)	> 100 µM (inactive)	> 100 µM (inactive)	> 100 µM (inactive)	> 100 µM (inactive)	> 100 µM (inactive)	–	> 100 µM (inactive)	80.9 µM (inactive)	50.7 µM (inactive)	> 100 µM (inactive)	> 100 µM (inactive)	> 100 µM (inactive)	–
Clc1ccc(C2ON=C(c3ccccc3)N2C23CC4CC(CC(C4)C2)C3)c(Cl)c1 (stereo unspecified)	> 10 µM (inactive)	> 10 µM (inactive)	> 10 µM (inactive)	> 10 µM (inactive)	> 10 µM (inactive)	> 10 µM (inactive)	> 10 µM (inactive)	> 10 µM (inactive)	> 10 µM (inactive)	> 10 µM (inactive)	> 10 µM (inactive)	> 10 µM (inactive)	> 10 µM (inactive)	> 10 µM (inactive)	> 10 µM (inactive)	> 10 µM (inactive)	> 10 µM (inactive)	> 10 µM (inactive)	–	> 10 µM (inactive)
Cc1ccc(N2Cc3c(ccc4ccccc34)OP2(=S)N2CCCC2)cc1 (stereo unspecified)	–	> 100 µM (inactive)	> 100 µM (inactive)	> 100 µM (inactive)	> 100 µM (inactive)	> 100 µM (inactive)	> 100 µM (inactive)	> 44.5 µM (inactive)	> 100 µM (inactive)	> 100 µM (inactive)	> 100 µM (inactive)	> 100 µM (inactive)	> 100 µM (inactive)	> 100 µM (inactive)	> 100 µM (inactive)	> 100 µM (inactive)	> 100 µM (inactive)	> 100 µM (inactive)	–	> 100 µM (inactive)
